Data reported in patent US8871753B2, “Macrocyclic compounds and their use as kinase inhibitors” (Incyte Corporation, priority 2008, dated 2014).
Where a name gives a salt, the structure may show the parent alone. Read-outs that look alike come from different tables or passages of the source.

How the values were obtained:
Type in all cases: biochemical
[1] = molecular target: T1, human JAK1 (a.a. 837-1142) (Homo sapiens, UniProt P23458); assay: In vitro JAK kinase assay (HTRF, phosphorylation of a biotinylated peptide), JAK1; details: read-out: JAK1 IC50
T1 construct: human JAK1 (a.a. 837-1142); His tag (N); made in house; host or cells: insect cells (baculovirus)
T1 sequence (P23458 849-1154): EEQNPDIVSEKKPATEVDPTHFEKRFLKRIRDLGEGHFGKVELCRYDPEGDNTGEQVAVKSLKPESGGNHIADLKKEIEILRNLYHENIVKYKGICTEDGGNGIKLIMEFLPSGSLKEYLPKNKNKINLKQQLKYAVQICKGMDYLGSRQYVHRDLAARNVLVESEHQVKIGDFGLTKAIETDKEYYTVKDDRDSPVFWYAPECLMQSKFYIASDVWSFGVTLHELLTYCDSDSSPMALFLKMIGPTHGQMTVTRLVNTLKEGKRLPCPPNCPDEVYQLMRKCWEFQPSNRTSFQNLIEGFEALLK
Summary of the method: (§1)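 Kinase activity was measured as phosphorylation of a biotinylated peptide, with ATP at 90 μM for JAK1, 30 μM for JAK2 and 3 μM for JAK3. Reactions ran 1 hr at room temperature, were stopped with EDTA plus SA-APC and Eu-Py20, and were read by HTRF after 40 minutes of antibody binding.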

[2] = molecular target: T2, human JAK2 (a.a. 828-1132) (Homo sapiens, UniProt O60674); assay: In vitro JAK kinase assay (HTRF, phosphorylation of a biotinylated peptide), JAK2
T2 construct: JAK2 (a.a. 828-1132); His tag (N); made in house; host or cells: insect cells (baculovirus)
T2 sequence (O60674 828-1132): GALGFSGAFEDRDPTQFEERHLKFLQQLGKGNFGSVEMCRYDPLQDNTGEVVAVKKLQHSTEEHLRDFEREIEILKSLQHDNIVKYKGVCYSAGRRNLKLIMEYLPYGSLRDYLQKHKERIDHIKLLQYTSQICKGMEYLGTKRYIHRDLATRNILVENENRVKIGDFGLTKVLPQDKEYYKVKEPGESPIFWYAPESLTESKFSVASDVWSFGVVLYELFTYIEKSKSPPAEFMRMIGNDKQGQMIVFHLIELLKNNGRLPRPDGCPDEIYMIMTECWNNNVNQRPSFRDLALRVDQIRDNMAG
Summary of the method: as §1

[3] = molecular target: T3, human JAK3 (a.a. 781-1124) (Homo sapiens, UniProt P52333); assay: In vitro JAK kinase assay (HTRF, phosphorylation of a biotinylated peptide), JAK3
T3 construct: JAK3 (a.a. 781-1124); His tag (N); made in house; host or cells: insect cells (baculovirus)
T3 sequence (P52333 781-1124): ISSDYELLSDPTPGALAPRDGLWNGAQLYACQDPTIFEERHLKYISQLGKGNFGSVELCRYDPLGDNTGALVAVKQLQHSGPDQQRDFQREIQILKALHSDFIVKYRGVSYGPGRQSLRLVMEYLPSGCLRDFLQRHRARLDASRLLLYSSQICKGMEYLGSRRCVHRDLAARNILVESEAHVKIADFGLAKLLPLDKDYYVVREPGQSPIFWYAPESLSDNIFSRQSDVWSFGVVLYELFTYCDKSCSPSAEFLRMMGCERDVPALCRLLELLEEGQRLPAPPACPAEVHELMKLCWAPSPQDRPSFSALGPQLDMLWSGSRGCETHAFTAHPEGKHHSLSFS
Summary of the method: as §1

[4] = molecular target: TYK2 (Homo sapiens, UniProt P29597); assay: TYK2 kinase inhibition (Table A1)
Chain of TYK2 (P29597 whole entry): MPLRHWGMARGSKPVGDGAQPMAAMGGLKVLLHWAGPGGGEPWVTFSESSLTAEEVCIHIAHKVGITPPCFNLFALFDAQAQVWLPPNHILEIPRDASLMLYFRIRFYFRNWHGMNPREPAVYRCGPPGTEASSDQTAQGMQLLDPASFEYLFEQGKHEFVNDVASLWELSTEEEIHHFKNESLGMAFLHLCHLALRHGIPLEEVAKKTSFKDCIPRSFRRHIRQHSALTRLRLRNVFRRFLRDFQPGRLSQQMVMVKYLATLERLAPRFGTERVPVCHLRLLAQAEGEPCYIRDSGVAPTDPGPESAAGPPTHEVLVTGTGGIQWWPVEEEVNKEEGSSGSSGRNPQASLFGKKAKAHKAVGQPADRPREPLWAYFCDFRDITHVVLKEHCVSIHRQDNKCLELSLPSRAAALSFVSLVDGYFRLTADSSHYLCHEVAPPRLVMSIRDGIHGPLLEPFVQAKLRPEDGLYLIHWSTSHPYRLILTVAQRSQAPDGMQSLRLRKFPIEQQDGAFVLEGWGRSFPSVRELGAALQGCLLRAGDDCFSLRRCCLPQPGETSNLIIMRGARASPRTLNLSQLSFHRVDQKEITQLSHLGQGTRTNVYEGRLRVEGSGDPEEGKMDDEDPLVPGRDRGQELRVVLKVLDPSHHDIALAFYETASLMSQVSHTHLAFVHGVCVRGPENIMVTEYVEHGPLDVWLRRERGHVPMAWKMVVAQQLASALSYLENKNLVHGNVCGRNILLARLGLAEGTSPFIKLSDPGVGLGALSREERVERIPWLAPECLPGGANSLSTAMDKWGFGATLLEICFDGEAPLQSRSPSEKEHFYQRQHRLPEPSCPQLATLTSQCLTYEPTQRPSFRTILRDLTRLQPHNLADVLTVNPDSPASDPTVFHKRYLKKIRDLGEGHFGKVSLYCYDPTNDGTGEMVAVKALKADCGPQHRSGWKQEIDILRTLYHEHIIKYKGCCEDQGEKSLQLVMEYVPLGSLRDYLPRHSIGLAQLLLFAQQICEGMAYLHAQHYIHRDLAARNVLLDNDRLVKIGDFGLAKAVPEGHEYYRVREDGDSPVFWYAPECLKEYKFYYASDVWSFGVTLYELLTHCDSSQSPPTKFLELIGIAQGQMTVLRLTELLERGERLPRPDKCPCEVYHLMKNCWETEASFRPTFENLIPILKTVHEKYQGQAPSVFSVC

[5] = molecular target: T4, Recombinant Human Anaplastic Lymphoma Kinase (Homo sapiens, UniProt Q9UM73); assay: ALK HTRF kinase assay
T4 construct: purchased Invitrogen, Carlsbad, Calif
T4 sequence (Q9UM73 19-1620): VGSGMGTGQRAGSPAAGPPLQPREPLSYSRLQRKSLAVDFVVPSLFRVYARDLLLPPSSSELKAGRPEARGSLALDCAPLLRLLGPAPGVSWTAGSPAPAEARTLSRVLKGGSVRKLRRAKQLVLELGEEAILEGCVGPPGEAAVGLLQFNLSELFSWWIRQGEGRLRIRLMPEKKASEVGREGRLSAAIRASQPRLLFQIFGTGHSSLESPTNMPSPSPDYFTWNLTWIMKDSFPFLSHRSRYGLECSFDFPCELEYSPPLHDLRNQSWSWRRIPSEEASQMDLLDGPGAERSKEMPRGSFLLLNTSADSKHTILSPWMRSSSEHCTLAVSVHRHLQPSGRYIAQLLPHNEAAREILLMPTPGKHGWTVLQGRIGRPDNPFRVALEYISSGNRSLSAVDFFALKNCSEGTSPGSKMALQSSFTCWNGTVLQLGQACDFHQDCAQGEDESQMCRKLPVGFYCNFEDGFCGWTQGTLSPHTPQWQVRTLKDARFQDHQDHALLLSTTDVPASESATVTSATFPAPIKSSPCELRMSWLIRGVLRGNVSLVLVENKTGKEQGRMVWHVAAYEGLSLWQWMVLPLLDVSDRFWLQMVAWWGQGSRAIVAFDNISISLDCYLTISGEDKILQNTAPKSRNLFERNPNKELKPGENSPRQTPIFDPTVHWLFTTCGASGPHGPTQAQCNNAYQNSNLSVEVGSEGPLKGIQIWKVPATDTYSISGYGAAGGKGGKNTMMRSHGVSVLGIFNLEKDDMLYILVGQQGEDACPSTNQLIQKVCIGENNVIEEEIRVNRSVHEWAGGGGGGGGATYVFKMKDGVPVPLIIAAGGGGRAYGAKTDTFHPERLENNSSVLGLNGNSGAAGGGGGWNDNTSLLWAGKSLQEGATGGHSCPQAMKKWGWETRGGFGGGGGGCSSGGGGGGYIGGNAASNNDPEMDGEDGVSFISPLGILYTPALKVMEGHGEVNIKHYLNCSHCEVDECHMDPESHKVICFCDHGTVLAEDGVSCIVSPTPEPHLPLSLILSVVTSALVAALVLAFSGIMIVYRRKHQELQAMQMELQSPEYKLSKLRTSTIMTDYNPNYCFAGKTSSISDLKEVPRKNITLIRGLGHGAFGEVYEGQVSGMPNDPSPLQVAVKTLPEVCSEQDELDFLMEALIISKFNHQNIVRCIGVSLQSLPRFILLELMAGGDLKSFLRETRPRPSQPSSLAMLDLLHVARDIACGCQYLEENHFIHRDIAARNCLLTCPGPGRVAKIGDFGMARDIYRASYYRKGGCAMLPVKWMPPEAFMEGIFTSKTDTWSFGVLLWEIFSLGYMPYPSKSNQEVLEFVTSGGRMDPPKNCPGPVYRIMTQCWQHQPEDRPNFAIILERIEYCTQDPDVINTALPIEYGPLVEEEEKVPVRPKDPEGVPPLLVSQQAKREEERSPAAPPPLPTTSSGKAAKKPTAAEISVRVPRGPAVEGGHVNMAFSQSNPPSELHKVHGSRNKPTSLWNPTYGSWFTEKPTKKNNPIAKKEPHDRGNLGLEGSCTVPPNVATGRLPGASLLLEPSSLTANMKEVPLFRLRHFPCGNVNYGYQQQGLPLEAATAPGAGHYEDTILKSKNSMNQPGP
Summary of the method: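 TR-FRET read-out (Eu anti-pTyr antibody + streptavidin-APC) of biotin-peptide phosphorylation by recombinant human enzyme; IC50 by sigmoidal fit with top/bottom baselines and Hill slope.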

[6] = compound at a concentration of 500 nM or 1 mM (not specified), cells shown as percentage
[7] = method AA1 (90 μM ATP) or AA2 (1000 μM ATP), not stated per value
[8] = method AA1 (30 μM ATP) or AA2 (1000 μM ATP), not stated per value
[9] = method AA1 (3 μM ATP) or AA2 (1000 μM ATP), not stated per value
[10] = compound at 500 nM or 1 mM, 90 μM ATP
[11] = Table B1, cells without percent sign

SMILES | IC50 ([1]; Table B1) [nM] | IC50 ([2]; Table B1) [nM] | IC50 ([3]; Table B1) [nM] | IC50 ([4]; Table B1) [nM] | IC50 [1, 7] [nM] | IC50 [2, 8] [nM] | IC50 [3, 9] [nM] | IC50 [4] [nM] | ALK % of inhibition at a concentration of 500 nM or 1 mM [5, 10] [%] | also measured
N#Cc1ccccc1N1CCN(C(=O)Nc2ccc3cc2CCc2cncc(c2)Nc2ncc(Cl)c(n2)N3)CC1 [Example B300, N-[6-Chloro-2,4,8,18,22-pentaazatetracyclo[14.3.1.1(3,7).1(9,13)]docosa-1(20),3(22),4,6,9(21),10,12,16,18-nonaen-12-yl]-4-(2-cyanophenyl)piperazine-1-carboxamide tris(trifluoroacetate)] | 16 | 160 | > 400 | 27 |  |  |  |  |  | ALK % of inhibition at a concentration of 500 nM or 1 mM [5, 6]: 77%
O=C(CC1CCN(S(=O)(=O)c2ccccc2)CC1)Nc1ccc2cc1CCc1cccc(c1)Nc1ncc(Cl)c(n1)N2 [Example A205, N-[6-Chloro-2,4,8,22-tetraazatetracyclo[14.3.1.1(3,7).1(9,13)]docosa-1(20),3(22),4,6,9(21),10,12,16,18-nonaen-12-yl]-2-[1-(phenylsulfonyl)piperidin-4-yl]acetamide trifluoroacetate] |  |  |  |  | 52 | 199 | > 200 | > 200 | 23 | 
N[C@@H](CO)C(=O)Nc1ccc2cc1CCc1cccc(c1)Nc1ncc(Cl)c(n1)N2 [Example A109, (2S)-2-Amino-N-[6-chloro-2,4,8,22-tetraazatetracyclo[14.3.1.1(3,7).1(9,13)]docosa-1(20),3(22),4,6,9(21),10,12,16,18-nonaen-12-yl]-3-hydroxypropanamide bis(trifluoroacetate)] |  |  |  |  | 5 | 11 | 7.3 | 7.5 | 33 | 
CC(=O)N1CCC(C(=O)Nc2ccc3cc2CCc2cccc(c2)Nc2ncc(Cl)c(n2)N3)CC1 [Example A29, 1-Acetyl-N-[6-chloro-2,4,8,22-tetraazatetracyclo[14.3.1.1(3,7).1(9,13)]docosa-1(20),3(22),4,6,9(21),10,12,16,18-nonaen-12-yl]piperidine-4-carboxamide trifluoroacetate] |  |  |  |  | 42 | 31 | 31 | 65 | 30 | 
O=C(Nc1ccc2cc1CCc1cccc(c1)Nc1ncc(Cl)c(n1)N2)c1cccnc1 [Example B30, N-[6-Chloro-2,4,8,22-tetraazatetracyclo[14.3.1.1(3,7).1(9,13)]docosa-1(20), 3(22),4,6,9(21),10,12,16,18-nonaen-12-yl]nicotinamide bis(trifluoroacetate)] | 0.87 | 0.78 | 2.9 | 2.5 |  |  |  |  |  | IC50 [5, 11]: 260 nM
Clc1cnc2nc1Nc1cccc(c1)CCSc1cccc(c1)N2 [Example D19, 6-Chloro-16-thia-2,4,8,23-tetraazatetracyclo[15.3.1.1(3,7).1(9,13)]tricosa-1(21),3(23),4,6,9(22),10,12,17,19-nonaene hydrochloride] |  |  |  |  |  |  |  |  |  | IC50 ([1]; Table D1): 150 nM; IC50 ([2]; Table D1): 16 nM; IC50 ([3]; Table D1): 39 nM; IC50 ([4]; Table D1): 149 nM; IC50 ([5]; Table D1, 90 μM ATP): 562 nM
NS(=O)(=O)N1CCC(CC(=O)Nc2ccc3cc2CCc2cncc(c2)Nc2ncc(Cl)c(n2)N3)CC1 [Example A78, 2-[1-(Aminosulfonyl)piperidin-4-yl]-N-[6-chloro-2,4,8,18,22pentaazatetracyclo[14.3.1.1(3,7).1(9,13)]docosa-1(20),3(22),4,6,9(21),10,12,16,18-nonaen-12-yl]acetamide bis(trifluoroacetate)] |  |  |  |  | 0.4 | 0.3 | 12 | 0.3 | 39 | 
O=C(Nc1ccc2[nH]ccc2c1)c1cc2cc(c1)OCCSc1cccc(c1)Nc1nc(ncc1Cl)N2 [Example D56, 6-Chloro-N-1H-indol-5-yl-17-oxa-14-thia-2,4,8,24-tetraazatetracyclo[16.3.1.1(3,7).1(9,13)]tetracosa-1(22),3(24),4,6,9(23),10,12,18,20-nonaene-20-carboxamide trifluoroacetate] |  |  |  |  |  |  |  |  |  | IC50 ([1]; Table D1): 10 nM; IC50 ([2]; Table D1): 4.8 nM; IC50 ([3]; Table D1): 42 nM; IC50 ([4]; Table D1): 14 nM; IC50 ([5]; Table D1, 90 μM ATP): 1940 nM
Clc1cnc2nc1Nc1cccc(c1)/C=C\c1cccc(c1)N2 [Example A1, (14Z)-6-Chloro-2,4,8,22-tetraazatetracyclo[14.3.1.1(3,7).1(9,13)]docosa-1(20),3(22),4,6,9(21),10,12,14,16,18-decaene trifluoroacetate] |  |  |  |  | 6 | 2.7 | 8.5 | 4.7 |  | IC50 ([5]; 90 μM ATP): 415 nM
O=C(Nc1ccc2cc1CCc1cccc(c1)Nc1ncc(Cl)c(n1)N2)NC1CCCNC1 (stereo not shown) [Example B238, N-[6-Chloro-2,4,8,22-tetraazatetracyclo[14.3.1.1(3,7).1(9,13)]docosa-1(20),3(22),4,6,9(21),10,12,16,18-nonaen-12-yl]-N′-piperidin-3-ylurea bis(trifluoroacetate)] | 8.1 | 17 | 274 | 50 |  |  |  |  |  | ALK % of inhibition at a concentration of 500 nM or 1 mM [5, 6]: 15%
CCOc1ccccc1NC(=O)Nc1ccc2cc1CCc1cccc(c1)Nc1ncc(Cl)c(n1)N2 [Example B106, N-[6-Chloro-2,4,8,22-tetraazatetracyclo[14.3.1.1(3,7).1(9,13)]docosa-1(20), 3(22),4,6,9(21),10,12,16,18-nonaen-12-yl]-N′-(2-ethoxyphenyl)urea trifluoroacetate] | 4.3 | 9.6 | 90 | 18 |  |  |  |  |  | ALK % of inhibition at a concentration of 500 nM or 1 mM [5, 6]: 5.7%
CN(C)C(=O)Nc1ccc2cc1CCc1cccc(c1)Nc1ncc(Cl)c(n1)N2 [Example B239, N′-[6-Chloro-2,4,8,22-tetraazatetracyclo[14.3.1.1(3,7).1(9,13)]docosa-1(20),3(22),4,6,9(21),10,12,16,18-nonaen-12-yl]-N,N-dimethylurea trifluoroacetate] | 6.4 | 8.9 | 35 | 24 |  |  |  |  |  | ALK % of inhibition at a concentration of 500 nM or 1 mM [5, 6]: 21%
Cc1cc(C(=O)N2CCC(C(=O)Nc3ccc4cc3CCc3cccc(c3)Nc3ncc(Cl)c(n3)N4)CC2)no1 [Example A120, N-[6-Chloro-2,4,8,22-tetraazatetracyclo[14.3.1.1(3,7).1(9,13)]docosa-1(20),3(22),4,6,9(21),10,12,16,18-nonaen-12-yl]-1-[(5-methylisoxazol-3-yl)carbonyl]piperidine-4-carboxamide trifluoroacetate] |  |  |  |  | 21 | 16 | 112 | 37 | 42 | 
Cn1ccc(C(=O)N2CCC(CC(=O)Nc3ccc4cc3CCc3cncc(c3)Nc3ncc(Cl)c(n3)N4)CC2)n1 [Example A130, N-[6-Chloro-2,4,8,18,22-pentaazatetracyclo[14.3.1.1(3,7).1(9,13)]docosa-1(20),3(22),4,6,9(21),10,12,16,18-nonaen-12-yl]-2-{1-[(1-methyl-1H-pyrazol-3-yl)carbonyl]piperidin-4-yl}acetamide bis(trifluoroacetate)] |  |  |  |  | 1.2 | 9.2 | 203 | 4.8 | 26 | 
O=S(=O)(Nc1ccc2cc1CCc1cccc(c1)Nc1ncc(Cl)c(n1)N2)c1cccc(Cl)c1 [Example B138, 3-Chloro-N-[6-chloro-2,4,8,22-tetraazatetracyclo[14.3.1.1(3,7).1(9,13)]docosa-1(20),3(22),4,6,9(21),10,12,16,18-nonaen-12-yl]benzenesulfonamide trifluoroacetate] | 0.25 | 0.1 | 0.33 | 0.35 |  |  |  |  |  | IC50 [5, 11]: 100 nM
O=C(Nc1cc2cc(c1)OCCSc1cccc(c1)Nc1nc(ncc1Cl)N2)c1ccccc1 [Example D57, N-[6-Chloro-17-oxa-14-thia-2,4,8,24-tetraazatetracyclo[16.3.1.1(3,7).1(9,13)]tetracosa-1(22),3(24),4,6,9(23),10,12,18,20-nonaen-20-yl]benzamide trifluoroacetate] |  |  |  |  |  |  |  |  |  | IC50 ([1]; Table D1): 11 nM; IC50 ([2]; Table D1): 2.3 nM; IC50 ([3]; Table D1): 21 nM; IC50 ([4]; Table D1): 7.4 nM; IC50 ([5]; Table D1, 90 μM ATP): 430 nM
CC(C)C(=O)Nc1ccc2cc1CCc1cccc(c1)Nc1ncc(Cl)c(n1)N2 [Example B55, N-[6-Chloro-2,4,8,22-tetraazatetracyclo[14.3.1.1(3,7).1(9,13)]docosa-1(20), 3(22),4,6,9(21),10,12,16,18-nonaen-12-yl]-2-methylpropanamide trifluoroacetate] | 12 | 2.7 | 1.1 | 23 |  |  |  |  |  | IC50 [5, 11]: 930 nM
